The test addresses T1, human bile salt export pump (BSEP) efflux transporter (Homo sapiens, UniProt O95342).
T1 construct: purchased SOLVO Biotechnology Charles River Laboratories, Szeged, Hungary; host or cells: HEK293 (inside out membrane vesicles)
Description: BSEP Vesicular Transport Inhibition Assay (IC50 determination). It is filed as biochemical. The note with it: human BSEP (HEK293) vesicles; taurocholate 0.2 μM; 4 mM Mg-ATP; 10 concentrations, 1 replicate; in nM. The procedure, abridged:
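Inside-out membrane vesicles from HEK293 cells expressing human BSEP were incubated with taurocholate probe substrate and compound (10 concentrations, single replicate) with 4 mM Mg-ATP, or 4 mM AMP for background, for 5 min at 37 °C. Vesicle-trapped substrate was quantified by liquid scintillation counting after filtration.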

T1 sequence (O95342 whole entry): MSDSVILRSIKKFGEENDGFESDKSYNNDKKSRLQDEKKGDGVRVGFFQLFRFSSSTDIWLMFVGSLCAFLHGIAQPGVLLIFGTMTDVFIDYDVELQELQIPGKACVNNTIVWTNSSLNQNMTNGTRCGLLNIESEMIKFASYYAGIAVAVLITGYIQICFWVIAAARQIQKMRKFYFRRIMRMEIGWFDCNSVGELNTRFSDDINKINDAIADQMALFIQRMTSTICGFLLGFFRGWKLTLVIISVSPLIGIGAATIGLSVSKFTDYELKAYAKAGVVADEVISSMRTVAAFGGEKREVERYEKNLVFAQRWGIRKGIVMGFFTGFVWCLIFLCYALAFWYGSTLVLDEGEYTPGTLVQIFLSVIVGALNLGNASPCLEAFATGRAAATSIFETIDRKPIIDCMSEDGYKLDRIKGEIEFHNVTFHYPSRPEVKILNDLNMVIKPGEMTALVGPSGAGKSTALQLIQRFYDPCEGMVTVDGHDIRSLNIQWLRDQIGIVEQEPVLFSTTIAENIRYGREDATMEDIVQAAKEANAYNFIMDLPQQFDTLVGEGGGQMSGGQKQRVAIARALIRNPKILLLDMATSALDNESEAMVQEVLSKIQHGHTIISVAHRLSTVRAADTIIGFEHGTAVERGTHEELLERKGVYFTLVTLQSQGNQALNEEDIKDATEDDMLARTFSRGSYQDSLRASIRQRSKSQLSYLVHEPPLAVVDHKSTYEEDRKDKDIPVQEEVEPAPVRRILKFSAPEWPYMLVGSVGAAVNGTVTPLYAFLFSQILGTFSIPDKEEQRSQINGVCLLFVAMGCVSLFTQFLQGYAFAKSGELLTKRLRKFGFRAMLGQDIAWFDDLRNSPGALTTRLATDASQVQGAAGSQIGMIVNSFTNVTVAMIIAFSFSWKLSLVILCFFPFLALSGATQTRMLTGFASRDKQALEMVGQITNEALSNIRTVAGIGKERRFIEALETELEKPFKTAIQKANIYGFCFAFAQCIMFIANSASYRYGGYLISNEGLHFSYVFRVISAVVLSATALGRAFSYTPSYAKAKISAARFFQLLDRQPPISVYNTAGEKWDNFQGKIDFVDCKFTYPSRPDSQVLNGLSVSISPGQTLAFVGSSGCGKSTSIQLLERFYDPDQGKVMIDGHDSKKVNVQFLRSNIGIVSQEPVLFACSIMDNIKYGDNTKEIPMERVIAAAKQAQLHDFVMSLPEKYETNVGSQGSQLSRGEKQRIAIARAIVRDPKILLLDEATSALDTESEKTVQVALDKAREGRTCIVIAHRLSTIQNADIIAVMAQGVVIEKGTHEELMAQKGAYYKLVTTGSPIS

On to `CO[C@@H]1CCN(S(=O)(=O)Nc2ccc(F)c(Oc3ccc4ncn(C5CC6(CCN(C7CC8(C7)CN(c7cc9c(cc7F)c(N7CCC(=O)NC7=O)nn9C)C8)CC6)C5)c(=O)c4c3)c2C#N)C1` (stereo partly drawn) [Compound 269, (3R)-N-[2-cyano-3-[3-[7-[2-[3-(2,4-dioxohexahydropyrimidin-1-yl)-5-fluoro-1-methyl-indazol-6-yl]-2-azaspiro[3.3]heptan-6-yl]-7-azaspiro[3.5]nonan-2-yl]-4-oxo-quinazolin-6-yl]oxy-4-fluoro-phenyl]-3-methoxy-pyrrolidine-1-sulfonamide], for which the “BSEP Inhibition/IC50” value is greater than 40000. As for `COC1CN(S(=O)(=O)Nc2ccc(F)c(Oc3ccc4ncn(C5CC6(CCN(C7CC8(C7)CN(c7cc9c(cc7F)c(N7CCC(=O)NC7=O)nn9C)C8)CC6)C5)c(=O)c4c3)c2C#N)C1` (centres unmarked) [Compound 280, N-[2-cyano-3-[3-[7-[2-[3-(2,4-dioxohexahydropyrimidin-1-yl)-5-fluoro-1-methyl-indazol-6-yl]-2-azaspiro[3.3]heptan-6-yl]-7-azaspiro[3.5]nonan-2-yl]-4-oxo-quinazolin-6-yl]oxy-4-fluoro-phenyl]-3-methoxy-azetidine-1-sulfonamide], the figure is 26550.

Values taken from patent US20260297060A1, “COMPOUNDS FOR THE DEGRADATION OF MUTANT BRAF” (C4 THERAPEUTICS, INC., priority 2023, published 2026).
